{
  "source": "paper PMC10800023",
  "about": "(Human Molecular Genetics, 2023)",
  "key": {"[1]": {"test_system": "MDCK cells", "assay": "MDCK control cell permeability (not transfected with human P-gp)", "settings": "dog, MDCK-MDR1, 60 min, pH 7.4", "experimental": "(§1) To measure transport by P-gp, Madin-Darby canine kidney (MDCK) cells that had been transfected with the human P-gp (MDR1) gene were plated in a Transwell plate and cultured until polarized. MDCK cells that are not transfected with human P-gp were used as a control. Compounds were added to either the apical or the basolateral side of the cells, and transport across the membrane was measured.\n(§2) Testing for permeability and MDR1 substrate assessment was done in MDCK cells transfected to overexpress human MDR1 gene that encodes efflux transporter protein (P-gp). […] Briefly, cells were maintained in Dulbecco’s modified Eagle medium (DMEM) with 10% fetal bovine serum and 1% penicillin/streptomycin in a humidified incubator at 37°C with 5% CO2. The study was performed by Absorption Systems (now Pharmaron; Exton, PA). The MDR1-MDCK and MDCK control cell lines were seeded into 12-well plates for 7 days. Integrity of monolayer tight junctions was monitored preincubation by transepithelial electrical resistance (TEER) measurement. […] The samples were withdrawn at t = 0 and 60 min from the receiver and donor compartments. Compound levels were measured by LC/MS–MS. Additionally, post-assay, cell monolayer integrity was checked with Lucifer Yellow permeability measurement. Transport assay low- and high-permeability control compounds were run in parallel for assay validation. Papp values were calculated considering compound concentrations across the monolayer and cell surface area. Efflux ratios were calculated based on Papp B > A over Papp A > B. The difference between the MDR1-MDCK and the MDCK cell efflux ratios was also calculated. […] Compounds were classified by Absorption Systems/Pharmaron as follows: […]"}, "[2]": {"test_system": "human P-gp (MDR1)", "assay": "MDR1-MDCK permeability / P-gp efflux assay", "experimental": "as §1, §2"}, "[3]": {"assay": "MDCK control cell permeability (not transfected with human P-gp)", "settings": "dog, pH 7.4", "experimental": "as §1, §2"}, "[4]": {"test_system": "P-gp (MDR1)", "assay": "MDR1-MDCK permeability / P-gp efflux assay", "settings": "MDCK-MDR1, pH 7.4", "experimental": "as §1, §2"}, "[5]": {"settings": "dog, MDCK-MDR1, 60 min, 1 μM, pH 7.4"}, "[6]": {"settings": "dog, MDCK-MDR1, 60 min, 10 μM, pH 7.4"}},
  "data": [
    {"smiles": "CC1=N[C@]2(C(=O)CO)[C@@H](C[C@H]3[C@@H]4CCC5=CC(=O)C=C[C@]5(C)[C@H]4[C@@H](O)C[C@@]32C)O1", "note": "[21-Des-deflazacort]", "values": [
      {"measurement": "Apical to Basolateral MDCK", "setting": "[1]; 1 μM", "value": "12.4 10 ^ −6 cm/s"},
      {"measurement": "Basolateral to Apical MDCK", "setting": "[1]; 1 μM", "value": "15.5 10 ^ −6 cm/s"},
      {"measurement": "Apical to Basolateral MDCK", "setting": "[1]; 10 μM", "value": "6.28 10 ^ −6 cm/s"},
      {"measurement": "Basolateral to Apical MDCK", "setting": "[1]; 10 μM", "value": "8.8 10 ^ −6 cm/s"},
      {"measurement": "Papp values", "setting": "[2]; MDCK-MDR1", "value": "< 3", "unit": "×10⁻⁶ cm/s"},
      {"measurement": "Apical to Basolateral MDR1-MDCK", "setting": "[2]; [5]", "value": "1.08 10 ^ −6 cm/s"},
      {"measurement": "Basolateral to Apical MDR1-MDCK", "setting": "[2]; [5]", "value": "72.8 10 ^ −6 cm/s"},
      {"measurement": "Apical to Basolateral MDR1-MDCK", "setting": "[2]; [6]", "value": "1.11 10 ^ −6 cm/s"},
      {"measurement": "Basolateral to Apical MDR1-MDCK", "setting": "[2]; [6]", "value": "73.6 10 ^ −6 cm/s"}
    ]},
    {"smiles": "C[C@]12C=CC(=O)C=C1CC[C@@H]1[C@@H]2C(=O)C[C@@]2(C)[C@H]1CC[C@]2(O)C(=O)CO", "note": "[Prednisone]", "values": [
      {"measurement": "Papp A→B at 60 min, 1 μM", "setting": "[3]", "value": 2.83, "unit": "×10⁻⁶ cm/s"},
      {"measurement": "Papp A→B at 60 min, 10 μM", "setting": "[3]", "value": 2.09, "unit": "×10⁻⁶ cm/s"},
      {"measurement": "Papp B→A at 60 min, 1 μM", "setting": "[3]", "value": 3.42, "unit": "×10⁻⁶ cm/s"},
      {"measurement": "Papp B→A at 60 min, 10 μM", "setting": "[3]", "value": 2.86, "unit": "×10⁻⁶ cm/s"},
      {"measurement": "Apical to Basolateral MDR1-MDCK", "setting": "[2]; 10 μM", "value": "0.499 10 ^ −6 cm/s"},
      {"measurement": "brain penetration classification", "setting": "[2]; 1 and 10 μM, from Papp (A-to-B) and efflux ratio", "value": "low"},
      {"measurement": "Papp A→B at 60 min, 1 μM", "setting": "[2]; dog, MDCK-MDR1, pH 7.4", "value": 0.263, "unit": "×10⁻⁶ cm/s"},
      {"measurement": "Papp B→A at 60 min, 1 μM", "setting": "[2]; dog, MDCK-MDR1, pH 7.4", "value": 43.8, "unit": "×10⁻⁶ cm/s"},
      {"measurement": "Papp B→A at 60 min, 10 μM", "setting": "[2]; dog, MDCK-MDR1, pH 7.4", "value": 51.8, "unit": "×10⁻⁶ cm/s"},
      {"measurement": "Papp at 60 min", "setting": "[4]", "value": "< 3", "unit": "×10⁻⁶ cm/s"}
    ]},
    {"smiles": "C[C@H]1O[C@@H](O[C@H]2[C@@H](O)C[C@H](O[C@H]3[C@@H](O)C[C@H](O[C@H]4CC[C@@]5(C)[C@H](CC[C@@H]6[C@@H]5C[C@@H](O)[C@]5(C)[C@@H](C7=CC(=O)OC7)CC[C@]65O)C4)O[C@@H]3C)O[C@@H]2C)C[C@H](O)[C@@H]1O", "note": "[digoxin]", "values": [
      {"measurement": "Papp A→B at 60 min", "setting": "[4]", "value": "0.0521 to 0.0558", "unit": "×10⁻⁶ cm/s"},
      {"measurement": "Papp B→A at 60 min", "setting": "[4]", "value": "19.6 to 20.7", "unit": "×10⁻⁶ cm/s"},
      {"measurement": "efflux ratio at 60 min", "setting": "[4]", "value": "352 to 398"}
    ]},
    {"smiles": "CC(C)NCC(O)COc1cccc2ccccc12", "note": "(centres unmarked) [propranolol]", "values": [
      {"measurement": "Papp at 60 min", "setting": "[4]", "value": "19.7 to 21.4", "unit": "×10⁻⁶ cm/s"}
    ]}
  ]
}
